Data taken from patent US20210161883A1, “EZH2 INHIBITOR-INDUCED GENE EXPRESSION” (Constellation Pharmaceuticals, Inc., priority 2017, published 2021).
Entries after “also recorded” stand apart in the source; their conditions may differ.

Legend:
[1] = system: global H3K27me3 levels in Karpas-422 GCB-DLBCL cells; test: H3K27me3 western blotting in Karpas-422 cells treated with EZH2 inhibitors; format: cell-based, human; settings: 1.5 μM, 4 days, vs DMSO, total H3 as control
Procedure: Lymphoma cell lines were grown in 10 ml cultures (as described in 2.1). […] After drug treatment, cells were centrifuged at 500×g for 3 min, supernatant was removed, and cell pellet was resuspended in 0.75 ml Trizol Reagent (Life Technologies, catalog #15596-026). RNA was extracted as per the manufacturer's protocol, resuspended in nuclease-free water, quantified using a NanoDrop 2000 UV-vis spectrophotometer (Thermo Scientific), and sent to Ocean Ridge Biosciences (http://www.oceanridgebio.com/) for RNA-sequencing. […]
In order to detect potential EZH2 inhibitor-mediated gene expression changes that could serve as a manifestation of target engagement, Karpas-422 GCB-DLBCL cells were treated with vehicle (dimethyl sulfoxide; DMSO) or Compound 1 for 4 days. […] The samples that were committed to RNA-sequencing were analyzed for changes in H3K27me3 levels by western blotting. […]

Karpas-422 xenograft = test: Multiplexed QuantiGene assay of signature genes in Karpas-422 mouse xenograft tumors; format: in vivo
Procedure: (§1) FIGS. 4A and B illustrate a comparison of Compound 1-mediated H3K27me3 level and gene expression changes in phenotypically responsive Karpas-422 xenografts where (A) represents tumor samples (n=4) from a Karpas-422 mouse xenograft experiment in which mice were dosed twice daily, orally with vehicle, 100 or 200 mg/kg of Compound 1 for 4, 7, or 14 days, and were analyzed by ELISA assays to determine H3K27me3 levels; and (B) is the same tumor samples described in (A) (n=4), but were analyzed by a multiplexed QuantiGene® assay for the transcript levels of 50 genes, 4 of which were housekeeping.
For isolation of RNA from tissues: Tumor samples from a Karpas-422 mouse xenograft experiment in which mice were dosed BID with vehicle, 100 or 200 mpk Compound 1 for 4, 7, or 14 days, were obtained. Tumors were frozen in liquid nitrogen, then pulverized. A small aliquot of frozen, pulverized tissue was resuspended in 600 μl buffer RLT (Qiagen) containing 65 mM DTT, applied to a QIAShredder column (Qiagen), and centrifuged for 3 min at 20,000×g. […] RNA was eluted in nuclease-free water, and concentrations were normalized following quantitation on a NanoDrop 2000 UV-vis spectrophotometer.
Initial tests were performed to determine the linearity of the QuantiGene® Plex Set, followed by full validation of the assay showing time- and dose-dependent gene expression changes in a mouse xenograft treated with Compound 1. […] The QuantiGene® assay was performed as per the manufacturer's protocol, and quantitated on a Luminex Magpix. […]
(§2) For each gene in each sample, the background median fluorescence intensity (MFI) value (recorded on the Luminex Magpix) was subtracted from the gene's measured MFI value. […]
(§3) Following regularization, the data from each well was processed independently by first generating a normalization factor by taking the geometric mean of regularized background-subtracted MFI values for 4 housekeeping genes (ACTB, POLR2A, PPIB, TBP). […] If more than 1 technical replicate was run for an individual sample, an average value was then calculated for each gene. […]

[2] = system: Karpas-422 GCB-DLBCL cells; test: RNA-sequencing gene expression profiling of Karpas-422 cells; format: cell-based, human; settings: 1.5 μM, 4 days
Procedure: Lymphoma cell lines were grown in 10 ml cultures (as described in 2.1). Cells were treated with 0.1% DMSO, 1.5 μM Compound 1 or in the presence of 1.5 μM other EZH2 inhibitors such as GSK126 and EPZ6438 for 4 days. After drug treatment, cells were centrifuged at 500×g for 3 min, supernatant was removed, and cell pellet was resuspended in 0.75 ml Trizol Reagent (Life Technologies, catalog #15596-026). RNA was extracted as per the manufacturer's protocol, resuspended in nuclease-free water, quantified using a NanoDrop 2000 UV-vis spectrophotometer (Thermo Scientific), and sent to Ocean Ridge Biosciences (http://www.oceanridgebio.com/) for RNA-sequencing. Cell samples were collected and total RNA was prepared (see 2.2). […] (2) 7 DLBCL cell lines treated for 4 days with GSK343 (generated in two separate experiments, with HT and SUDHL6 comprising the first experiments, the other 5 cell lines in a second experiment. For the HT and SUDHL6 cell samples in dataset 2, reads were aligned to the hg19 genome using bowtie version 0.12.9. The other datasets were aligned to the hg19 genome with Tophat 1.4.1 The aligned read files were sorted and duplicates removed using sort and rmdup functions from samtools version 0.1.182. See Li, H. et al. The Sequence Alignment/Map format and SAMtools. Bioinformatics 25, 2078-2079 (2009). […]

Karpas-422 cells = test: Multiplexed QuantiGene assay of EZH2-controlled signature genes in Karpas-422 cells in vitro; format: cell-based, human; settings: 1.5 μM, 4 days, vs DMSO
Procedure: The gene list described in Table 2 was submitted to Affymetrix, and a multiplexed QuantiGene® assay (https://www.ebioscience.com/application/gene-expression/quantigene-plex-assay.htm) probe set on the basis was generated specific to the human genome (see Appendix B). The primer and probe sequences used to generate the multiplex assay were not made available by the vendor.
In addition to validating the assay using a Karpas-422 mouse xenograft model, RNA from Karpas-422 cells treated with 1.5 μM Compound 1 for 4 days was also used. Samples were processed and quantitated as described above. […]
as §2
as §3, with “gene. These values were then converted to log 2 space, and log 2 fold change values were determined by subtracting vehicle/control values from treated values.” for “gene.”

[3] = system: H3K27me3 levels in Karpas-422 xenografts; test: H3K27me3 ELISA of Karpas-422 mouse xenograft tumor samples; format: in vivo; settings: Karpas-422 xenograft, 100 or 200 mg/kg BID oral
Procedure: as §1

[4] = system: RL xenograft (EZH2 inhibitor-insensitive GCB-DLBCL cell line); test: RL mouse xenograft tumor volume; format: in vivo; settings: 200 mg/kg twice daily, 18 days
Procedure: (§4) To verify the gene signature as a readout of target engagement and not phenotypic responsive, an EZH2 inhibitor-insensitive GCB-DLBCL cell line, RL, was utilized in a mouse xenograft model. The RL xenograft bearing mice were treated twice daily with 200 mg/kg Compound 2 or vehicle control for 18 days. […] Tumors were harvested 6 hours post-last dose on day 18 of treatment and processed and analyzed using the QuantiGene® Plex assay, as described above.

RL xenograft = test: Multiplexed QuantiGene assay of signature genes in RL mouse xenograft tumors; format: in vivo; settings: 200 mg/kg twice daily, day 18, tumors harvested 6 hours post-last dose
Procedure: as §4, §2
as §3, with “gene. These values were then converted to log 2 space, and log 2 fold change values were determined by subtracting vehicle/control values from treated values.” for “gene.”
To determine the statistical significance of the engagement score, a phenotype permutation test was performed by randomly assigning the empirically determined expression values for each gene to the control or treated condition. […]

SMILES	global H3K27me3 levels (western blotting) [1]	signature gene expression in tumors vs vehicle-treated tumors (Karpas-422 xenograft; 100 or 200 mg/kg BID oral, 4, 7 and 14 days, tumors harvested 6 hours post last dose)	gene expression signature (aggregate gene score), treatment arms vs vehicle arms (Karpas-422 xenograft; 100 or 200 mg/kg BID oral, all three time points (4, 7, 14 days))	magnitude of signature gene expression changes in tumors compared with cells treated in vitro (Karpas-422 xenograft; 4 days, 100 mg/kg BID and 200 mg/kg BID, vs cells at 1.5 μM for 4 days)	gene expression changes compared with those of other EZH2 inhibitors (GSK126, EPZ-6438) [2]	number of genes with significantly changed expression ([2]; vs DMSO, log 2 fold change >0.8, p<0.05)	signature gene expression (QuantiGene) (Karpas-422 cells)	H3K27me3 levels normalized to total histone H3 (ELISA) ([3]; 14 days, t-test p<0.05 vs vehicle)	H3K27me3 levels normalized to total histone H3 (ELISA) ([3]; earlier time points (4, 7 days))	tumor volume vs vehicle-treated mice [4]	gene signature score (QuantiGene) (RL xenograft)
COc1cc(C)[nH]c(=O)c1CNC(=O)c1c(C)n([C@H](C)C2CCN(CC(F)(F)F)CC2)c2ccccc12 [Compound 1, (R)—N-((4-methoxy-6-methyl-2-oxo-1,2-dihydropyridin-3-yl)methyl)-2-methyl-1-(1-(1-(2,2,2-trifluoroethyl)piperidin-4-yl)ethyl)-1H-indole-3-carboxamide]	effectively reduced global H3K27me3 levels	significant induction of signature genes in a dose- and time-dependent manner; also recorded: significant alteration of signature genes; also recorded: significantly induced EZH2-target genes	robust and statistically significant change	did not show the same magnitude of signature gene expression changes	remarkably similar	604 genes	significant increase and decrease of signature gene expression	significant reduction in H3K27me3 levels	not statistically significant		
CCC(C)n1cc(C)c2c(C(=O)NCc3c(C)cc(C)[nH]c3=O)cc(-c3ccc(N4CCNCC4)nc3)cc21 (stereo not drawn) [GSK126, reference compound]	substantial loss of H3K27me3										
CCS(=O)(=O)N1CCC([C@@H](C)n2c(C)c(C(=O)NCc3c(OC)cc(C)[nH]c3=O)c3ccccc32)CC1 [Compound 2]										No reduction in tumor volume	statistically significant gene signature score
